pKi: −log10 of the molar value.
molecular target: T1, human FAAH (Homo sapiens, UniProt O00519); assay: Human FAAH inhibition assay (fluorescence, AMC arachidonoyl amide hydrolysis); assay type: biochemical; details: human FAAH from transfected COS-7 cells; 20 μM AMC arachidonoyl amide; 30 min preincubation, 4 h reaction at room temperature
T1 construct: host or cells: COS-7 cells, transient transfection (FuGENE 6); 13,000 g membrane fraction solubilised in 1% Triton X-100
T1 sequence (O00519 1-579): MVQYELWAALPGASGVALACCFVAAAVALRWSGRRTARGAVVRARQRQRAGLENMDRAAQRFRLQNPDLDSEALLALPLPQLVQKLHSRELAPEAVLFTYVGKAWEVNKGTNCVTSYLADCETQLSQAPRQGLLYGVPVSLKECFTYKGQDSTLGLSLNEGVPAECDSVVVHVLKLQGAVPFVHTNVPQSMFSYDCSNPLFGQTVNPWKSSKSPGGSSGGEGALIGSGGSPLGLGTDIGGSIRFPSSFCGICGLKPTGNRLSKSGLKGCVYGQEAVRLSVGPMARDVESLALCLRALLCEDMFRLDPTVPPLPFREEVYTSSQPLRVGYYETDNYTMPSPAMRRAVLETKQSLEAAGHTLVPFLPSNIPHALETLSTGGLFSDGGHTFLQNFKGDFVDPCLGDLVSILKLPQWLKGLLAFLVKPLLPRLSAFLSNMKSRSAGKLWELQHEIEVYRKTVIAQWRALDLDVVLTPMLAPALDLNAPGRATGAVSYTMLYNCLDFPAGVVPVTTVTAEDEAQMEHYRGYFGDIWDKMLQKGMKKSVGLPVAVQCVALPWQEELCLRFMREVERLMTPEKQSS
Description: Exemplary compounds are set forth in the Examples provided below. Compounds were assayed as inhibitors of human FAAH using the method described in detail in Example 16.
The following assays were used to determine the inhibition of FAAH: (1) a fluorescence-based assay (Manjunath et al., Analytical Biochemistry (2005) 343:143-151); and (2) a microsome-based fluorescent assay (Wang et al., Biomolecular Screening (2006) 1-9).
COS-7 cells were split the day before, 1:5 into 150 mm×25 mm cell culture dishes (Corning Inc., Cat. No. 430599). Transient transfection took place at 30-40% confluency according to FuGENE 6 Transfection Reagent (Roche, Cat. No. 11814 443 001).
The FuGENE transfection 6 reagent (45 uL) was added to 1410 μL of media (DMEM, serum free without pen/strep) in a 15 mL conical tube and incubated at room temp for 5 minutes, followed by the addition of FAAH plasmid DNA (15 μg) (OriGene Cat. No. TC119221, Genbank Accession No. NM_001441.1, 0.67 ug/uL) and a further incubation of 15 minutes at room temperature. The resulting solution was added into one dish of 30-40% confluent COS-7 cells in a dropwise manner. The COS-7 cell dish was subsequently incubated for 48 hours. The cells were then harvested.
Media was aspirated from the dishes and the cells rinsed with 10 mL PBS. The PBS was removed and 3 mL of PBS added to the dish. The dish was scraped to resuspend the cells, and the subsequent cell suspension collected into a 15 mL conical tube. The cells were pelleted by centrifugation at 1200 rpm for 5 minutes in a bench top centrifuge. PBS was removed and the cell pellet snap frozen in liquid nitrogen and stored at 80° C.
COS-7 Cells FAAH purification: • (1) Fractionation: Frozen cell pellets from transient transfections were thawed on ice and resuspended in 12.5 mM Hepes pH 8.0, 100 mM NaCl, 1 mM EDTA (10 mL/0.2 g cell pellet). The pellets were dounce homogenized and then sonicated to produce cell extract. The cell extract was subsequently centrifuged at 1000 g to remove cellular debris. The pellet was discarded and the supernatant centrifuged at 13,000 g for 20 minutes. The pellet contained membrane bound FAAH. The supernatant was discarded and the pellet resolubilized. • (2) Resolubilization: The fraction of interest, (13,000 g, membrane fraction) was resuspended in 2.3 mL resuspension buffer (20 mM Hepes pH 7.8, 10% v/v Glycerol, 1 mM EDTA, 1% Triton X-100) and the sample incubated on ice for 1 hour and then centrifuged to remove any particulate matter. The supernatant containing solubilized human FAAH was aliquoted and snap frozen in liquid nitrogen and stored at 80° C. until use. • (3) Characterization: Protein Concentration determined by Bradford assay. • SDS gel and Western blot to confirm presence of FAAH • FAAH activity assay • Km determination—96-well assay • Linear dependence—96-well assay • Standard compound Ki determination—384-well assay
Rat FAAH biochemical assays were carried out in a 96 well flat bottom black nontreated polystyrene plates (Corning Costar Catalogue #3915). FAAH reaction buffer: 50 mM Hepes (pH 7.5), 1 mM EDTA, 0.2% Triton X-100. FAAH substrate—AMC Arachidonoyl Amide (Cayman Chemicals Company, Catalog #10005098). The reaction was read in an Envision microtiter plate reader [Excitation filter 355 nm (40 nm bandpass); Emmision filter 460 nm (25 nm bandpass)]. The raw fluorescence was plotted on the y axis and the inhibitor concentration on the x axis to give a dose response inhibition curve. The data was fitted to a single site competitive inhibition equation, fixing the Km for the rat and human enzyme to 12 μM and 9 μM respectively.
The principle of this assay was the hydrolysis of AMC-Arichodonoyl, a fluorescent analogue of Anandamide, which results in the formation of Arachidonic acid and AMC. The formation of AMC results in an increase in fluorescence (see, for example, Manjunath et al., Analytical Biochemistry (2005) 343:143-151; and Wang et al., Biomolecular Screening (2006) 1-9). […]

`Cn1ccc2cc(B(O)O)ccc2c1=O` [Compound 1] and `CCCCCCn1ccc2cc(B(O)O)ccc2c1=O` [Compound 7] cannot be ordered by pKi: 7.00 to 8.00 for the first, no less than 8.00 for the second.

`O=c1c2ccc(B(O)O)cc2ccn1Cc1ccccc1` [Compound 2] and `O=c1c2ccc(B(O)O)cc2ccn1CCc1ccccc1` [Compound 3] cannot be ordered by pKi: 7.00 to 8.00 for the first, no less than 8.00 for the second.

`CC(c1ccccc1)n1ccc2cc(B(O)O)ccc2c1=O` (stereo not drawn) [Compound 4] and `CC(Cn1ccc2cc(B(O)O)ccc2c1=O)c1ccccc1` (stereo not drawn) [Compound 5] fall in the same range of pKi: 7.00 to 8.00 for the first, 7.00 to 8.00 for the second.

`CC(Cc1ccccc1)n1ccc2cc(B(O)O)ccc2c1=O` (stereo not drawn) [Compound 6] and `O=c1c2cc(B(O)O)ccc2ccn1CCc1ccccc1` [Compound 11] fall in the same range of pKi: 7.00 to 8.00 for the first, 7.00 to 8.00 for the second.

First: Cc1nc2cc(B(O)O)ccc2c(=O)n1C [Compound 8]
Second: Cc1nc2cc(B(O)O)ccc2c(=O)n1CCc1ccccc1 [Compound 9]
The pKi of the first is lower: less than 6.00 for the first, 7.00 to 8.00 for the second. The second binds more tightly here.

`O=c1c2ccc(B(O)O)cc2ncn1CCc1ccccc1` [Compound 10] and `O=c1c2ccc(B(O)O)cc2cnn1CCc1ccccc1` [Compound 13] cannot be ordered by pKi: no less than 8.00 for the first, no less than 8.00 for the second.

`O=C1c2ccc(B(O)O)cc2CCN1CCc1ccccc1` [Compound 12] and `O=C1c2ccc(B(O)O)cc2CN1CCc1ccccc1` [Compound 15] cannot be ordered by pKi: no less than 8.00 for the first, no less than 8.00 for the second.

For `O=c1[nH]c(CCc2ccccc2)nc2ccc(B(O)O)cc12` [Compound 14], the pKi was 6.00 to 7.00.
